The subject of series [1] is HFD-fed SD rats. In words: HFD-fed Sprague-Dawley (SD) rat model. The series is classed as in vivo. An excerpt: (§1) Data are shown as mean±SD. N=5-8 animals per group. *p≤0.05, **p≤0.01, ***p≤0.001, ****p≤0.0001 vs. vehicle, unless otherwise indicated; ^#p≤0.05 pioglitazone vs. vehicle Kruskal-Wallis (non-parametric One-Way ANOVA) test with Dunn's multiple comparisons test (FIG. 4A, FIG. 4B, FIG. 4D), repeated measures two-way ANOVA with Dunnett's multiple comparisons test (FIG. 4C), two-way ANOVA with Sidak's multiple comparisons test (FIG. 4E), Mann-Whitney test (FIG. 4F-G).
(§2) Data are shown as mean±SD. N=5-8 animals per group. *p≤0.05, **p≤0.01, ***p≤0.001, ****p≤0.0001 vs. vehicle, unless otherwise indicated; ^#p≤0.05 pioglitazone vs. vehicle repeated measures two-way ANOVA with Dunnett's multiple comparisons test (FIG. 5A, FIG. 5C, FIG. 5D), Kruskal-Wallis (non-parametric one-way ANOVA) test with Dunn's multiple comparisons test (FIG. 5B, FIG. 5E).
(§3) The efficacy of Compound 21/3 was evaluated in three dysmetabolic rodent models including DIO mice, HFD-fed ZDF rats, and HFD-fed SD rats (FIG. 4 and FIG. 5). Briefly, DIO mice were fed a HFD (60% kcal from fat) for 14 weeks and treated with Compound 21/3 (0.3 and 1 mg/kg once daily by oral gavage) for three weeks, while ZDF and SD rats were fed HFD for two weeks prior to treatment with Compound 21/3 (0.1 and 1 mg/kg once daily by oral gavage) for two or three weeks, respectively.

Series [2] is described as follows: Phase 1 study, MAD cohorts: plasma pharmacokinetics. The series is classed as in vivo, human. The conditions noted are these: healthy subjects; for AUC / Cmax / Tmax / half-life: both sexes, human, plasma, oral. The method, then: (§4) A double-blind, placebo-controlled, single- and multiple-ascending dose FIH Phase 1 study to evaluate the safety, tolerability, PK, and PD of Compound 21/3 in healthy adult subjects was performed. A total of up to 150 subjects were enrolled, including 100 subjects in Parts A and B, and up to 50 subjects in adaptive cohorts in Part C. Within each cohort, 10 subjects were randomized, including 8 subjects randomized to Compound 21/3 and 2 subjects to PTM (placebo-to-match). In single-dose cohorts in Parts A and in any Part C cohort evaluating a higher total daily dose than previously evaluated, safety and tolerability data collected through Day 2 from two sentinel subjects, one randomized to Compound 21/3 and one to PTM, were evaluated prior to dosing of the remaining subjects in each cohort.
Intensive PK sampling over 72 h postdose on Day 1 (SAD and MAD) and Day 14 (MAD) was performed. Compound 21/3 plasma concentrations were determined using validated liquid chromatography-tandem mass spectrometry assay. PK parameters were estimated via noncompartmental methods using Pheonix® WinNonlin® 6.2.1 and 8.3.4 (Certara, LP, Princeton, NJ).
Part B evaluated the safety, tolerability, PK, and PD of multiple-ascending doses of oral Compound 21/3 or placebo under fed conditions. Part B will proceed in up to 5 dose-escalation cohorts and will be governed by a review of safety, tolerability, and any available and relevant PK and/or PD data, and study-specific stopping criteria.

In series [3] the test system is healthy subjects. In words: Phase 1 study, SAD cohorts: safety and tolerability. The series is classed as in vivo, human. Conditions: range over dose groups. The method, then: as §4
An approximately even distribution of healthy male and non-pregnant, non-lactating female subjects 18 to 55 years of age, inclusive, were to be enrolled in the study. There were no significant medical conditions by history, physical examination, or laboratory evaluation. Subjects were not allowed to participate in more than one cohort of the study. Within each MAD cohort, attempts were made to enrich for >3 subjects with elevated TG and/or LDL-C. Following the completion of Screening and admission assessments, eligible subjects were to be enrolled on Day −1. […]

The test system of series [4] is DIO mice. Nature of the series: Diet-induced obese (DIO) mouse model. The series is classed as in vivo.
Source text: as §1, §2, §3

In series [5] the test system is HFD-fed (DIO) mice. Nature of the series: Intestinal lipid absorption (3H-triolein tracer) in HFD-fed mice. The series is classed as in vivo. The conditions noted are these: 5 mg/kg oral gavage.
Source text: as §1
In addition to the effects of Compound 21/3 on hepatic DNL, the observed reductions in plasma TG in these models may be mediated by reduced intestinal TG absorption, as well as increased clearance of TG-containing lipoproteins from the circulation. […] Further, LXR inhibition with Compound pre-6/3 reduced intestinal lipid absorption as measured by reduced uptake of ^3H-labelled triolein tracer in HFD-fed mice (FIG. 4E). Additionally, Compound 21/3 reduced hepatic expression and plasma levels of ANGPTL3, an inhibitor of LPL, the predominant enzyme involved in the clearance of TG-rich lipoproteins from the circulation (FIG. 4F). Loss-of-function variants in ANGPTL3 are associated with reduced serum lipids and a lower risk of CAD (Dewey, Gusarova et al. 2017). […]

Molecules are shown by their SMILES. Like-named read-outs stand apart in the source and are kept apart here.

Usually AUC stands for concentration integrated over time. Read a high AUC as more exposure. By Tmax is commonly meant the time at which the peak concentration occurs. With `N#Cc1cccc(C#N)c1-c1c(-c2cccc(-c3ccc(C(=O)NCC(=O)O)cc3Cl)c2)n(S(=O)(=O)c2ccc(C(F)F)cc2)c2ccc(F)cc12` [Compound 21/3], the “liver expression of DNL genes (Srebp1c, Fasn, Acaca, Scd1)” value in series [1] (0.1 and 1 mg/kg once daily oral) is recorded as “dose-dependently reduced”; in series [4] (DIO mice, 0.3 and 1 mg/kg once daily oral, three weeks), “dose-dependently reduced”. The “reduction of plasma TG compared with vehicle” value in series [1] (highest dose 1 mg/kg, p≤0.05) stood at 59%. Also, the “maximal reduction of liver TG versus vehicle” value in series [1] (p=0.07) amounted to 42%; in series [4] (DIO mice, p≤0.001), 65%. In addition, the AUC in series [2] (2 mg, MAD Day 14, 2 mg, fed, mean) stood at 2.7 ng·h/mL; in series [2] (6 mg, MAD Day 14, 6 mg (fasted), mean) it was 19 ng·h/mL; in series [2] (6 mg, MAD Day 14, 6 mg, fed, mean), 6.05 ng·h/mL; in series [2] (12 mg, MAD Day 14, 12 mg, fed, mean), 14.6 ng·h/mL. Moreover, the Cmax in series [2] (2 mg, MAD Day 14, 2 mg, fed, mean, read-out: Cmax) was 0.95 ng/mL; in series [2] (6 mg, MAD Day 14, 6 mg (fasted), mean, read-out: Cmax), 6.37 ng/mL; in series [2] (6 mg, MAD Day 14, 6 mg, fed, mean, read-out: Cmax) it was 2.16 ng/mL; in series [2] (12 mg, MAD Day 14, 12 mg, fed, mean, read-out: Cmax) it was 4.85 ng/mL; in series [2] (Phase 1 summary (SAD and MAD), read-out: maximal plasma concentrations (Cmax)) it was under 7 ng/mL. In addition, the Tmax was 4 h in series [2] (2 mg, MAD Day 14, 2 mg, fed, median); 2 h in series [2] (6 mg, MAD Day 14, 6 mg (fasted), median); 3.5 h in series [2] (6 mg, MAD Day 14, 6 mg, fed, median); 3.5 h in series [2] (12 mg, MAD Day 14, 12 mg, fed, median); 2 to 4 h in series [2] (Phase 1 summary (SAD and MAD)). The half-life in series [2] (2 mg, MAD Day 14, 2 mg, fed, median, read-out: t1/2 (converted)) is 1.43 h; in series [2] (6 mg, MAD Day 14, 6 mg (fasted), median, read-out: t1/2 (converted)) it was 1.46 h; in series [2] (6 mg, MAD Day 14, 6 mg, fed, median, read-out: t1/2 (converted)), 1.51 h; in series [2] (12 mg, MAD Day 14, 12 mg, fed, median, read-out: t1/2 (converted)) it was 1.74 h; in series [2] (MAD, read-out: steady-state t1/2), 1.4 to 2.6 h. Further, the “steady-state t1/2” value in series [2] (MAD) lay in the range of 1.5 to 2.5 h. For the same molecule, the “AUC and Cmax lower on Day 14 vs Day 1” value in series [2] (MAD, fed dosing) is 25-50%. Moreover, the “dose proportionality of AUC and Cmax” value in series [2] (MAD, fed dosing) is recorded as “increased less than dose proportionally”. Also, the “proportion of subjects with adverse events (AEs)” value in series [3] is on record as 13-50%. Besides, the “expression of Hmgcr and Cyp7a1 in the liver and Abca1, Abcg5, Abcg8 in the intestine” value in series [4] (DIO mice) is “dose-dependently reduced”. For the same molecule, the “expression of cholesterol efflux transporters Abca1 and Abcg1 in the buffy coat” value in series [4] (DIO mice) was “did not alter”. Also, in series [4] (DIO mice), the “plasma TG levels” value is given as “reduced”. Also, the “reduction of plasma total cholesterol (TC) at end of treatment compared with vehicle” value in series [4] (DIO mice, p≤0.05) is reported as 49%. The “intestinal Srebp1c expression” value in series [4] (DIO mouse, ileum) was “dose-dependently reduced”. For the same molecule, the “liver TC” value in series [4] (dysmetabolic rodent models (FIG. 5B), particularly higher dose groups) is listed as “statistically significant increase”. For the same molecule, the “liver biochemistry tests, plasma ALT or AST, compared with vehicle” value in series [4] (dysmetabolic rodent models (FIG. 5C-D)) is listed as “not associated with substantial elevations”.
For the molecule `N#Cc1cccc(C#N)c1-c1c(-c2cccc(-c3ccc(C(=O)O)cc3Cl)c2)n(S(=O)(=O)c2ccc(C(F)F)cc2)c2ccc(F)cc12` [pre-6/3], the “intestinal lipid absorption (uptake of 3H-labelled triolein tracer)” value in series [5] is on record as “reduced”.

The values are drawn from patent publication US20260083704A1, “LXR MODULATORS WITH BICYCLIC CORE MOIETY FOR TREATING DYSLIPIDEMIAS” (OrsoBio, Inc., priority 2022, published 2026).
